From patent US20230219963A1, “PYRROLO[2,3-D]PYRIMIDINE DERIVATIVES” (Pfizer Inc., priority 2020, published 2023)

Columns and labels:
IFNg induced pSTATI = assay: IFNγ-induced pSTAT1 in human whole blood (CD14+ cells); format: cell-based; details: JAK1/JAK2, read-out: IFNg induced pSTATI, cellular potency IC50
Experimental: (§1) Human whole blood was collected from healthy donors via vein puncture into Vacutainer collection tubes containing sodium heparin in accordance with Pfizer protocols (Protocol No. GOHW RDP-01) approved by the Shulman Institutional Review Board. Blood was warmed to 37° C. priorto use. Human whole blood was aliquoted (90 μL/well) in 96-well, deep-well, V-bottom plates and treated with compounds (5 μL/well) at different concentrations up to 60 μM (0.2% DMSO final) at 37° C. for 60 minutes. This was followed by a challenge with IFNα (5000 U/mL), IFNγ (100 ng/mL), IL-6 (50 ng/mL), IL-10 (30 ng/mL), IL-12 (30 ng/mL), IL-15 (30 ng/mL), IL-21 (50 ng/mL), IL-23 (25 ng/mL), IL-27 (1000 ng/mL), EPO (2 U/mL), TSLP (50 ng/mL) or PBS and incubated for 15 minutes. Anti-cell surface antibodies were added 15 minutes prior to cytokine stimulation; anti-CD3-BV421 (0.5 μL/well) to IL-6-treated and TSLP-treated samples and anti-CD14-BV421 (0.5 μL/well) to IFNγ-treated samples. Samples were treated with warm 1×Lyse/Fix buffer (700 μL/well) to terminate activation and further incubated at 37° C. for 20 minutes to lyse red blood cells. Plates were centrifuged at 300×g for 5 minutes, supernatant was aspirated, and cells were washed with 800 μL/well of staining buffer (D-PBS containing 0.1% FBS and 0.01% sodium azide). Washed cell pellets were resuspended in 350 μL/well of prechilled 90% methanol and incubated at 4° C. for 30 minutes. After the removal of 90% methanol, cells were washed once with staining buffer. All samples were finally suspended in 150 μL/well of the desired anti-phospho-STAT antibodies at 1:150 dilution in staining buffer; anti-pSTAT1-AF647 in IFNγ treated samples; anti-pSTAT1-AF488 and anti-pSTAT3-AF647 in IL-6-treated samples, anti-pSTAT3-AF647 in IFNα, IL-10, IL-21, IL-23 and IL-27 treated samples, anti-pSTAT4-AF647 in IL-12 treated samples, anti-pSTAT5-AF-647 in EPO, IL-15 and TSLP-treated samples. Human primary keratinocytes were cultured in DermaLife™ medium with supplement kit to expand cell population. Cell passages 2 to 5 were used in the assays. Cells were harvested at ˜80% confluence, suspended in warm DermaLife™ medium, aliquoted (90 μL/well) in 96-well, deep-well, V-bottom plates, and incubated at 37° C. for 30 minutes. Cells were then treated with compounds (0.0003 to 20 μM) for 60 minutes and followed by stimulation with IL-4 (2 ng/mL) or IL-13 (20 ng/mL) at 37° C. for 15 minutes. […]
(§2) After overnight incubation at 4° C., anti-pSTAT stained samples were transferred into 96-well polypropylene U-bottom plates and flow cytometric analysis was performed on a LSR Fortessa™ equipped with a HTS plate loader. […] Background fluorescence was defined using unstimulated cells and a gate was placed at the foot of the peak to include ˜0.5% gated population. […]

JAK2 = JAK2 (Homo sapiens, UniProt O60674); assay: JAK Caliper Enzyme Assay at 1 mM ATP (JAK2); format: biochemical
Chain of JAK2 (O60674 whole entry): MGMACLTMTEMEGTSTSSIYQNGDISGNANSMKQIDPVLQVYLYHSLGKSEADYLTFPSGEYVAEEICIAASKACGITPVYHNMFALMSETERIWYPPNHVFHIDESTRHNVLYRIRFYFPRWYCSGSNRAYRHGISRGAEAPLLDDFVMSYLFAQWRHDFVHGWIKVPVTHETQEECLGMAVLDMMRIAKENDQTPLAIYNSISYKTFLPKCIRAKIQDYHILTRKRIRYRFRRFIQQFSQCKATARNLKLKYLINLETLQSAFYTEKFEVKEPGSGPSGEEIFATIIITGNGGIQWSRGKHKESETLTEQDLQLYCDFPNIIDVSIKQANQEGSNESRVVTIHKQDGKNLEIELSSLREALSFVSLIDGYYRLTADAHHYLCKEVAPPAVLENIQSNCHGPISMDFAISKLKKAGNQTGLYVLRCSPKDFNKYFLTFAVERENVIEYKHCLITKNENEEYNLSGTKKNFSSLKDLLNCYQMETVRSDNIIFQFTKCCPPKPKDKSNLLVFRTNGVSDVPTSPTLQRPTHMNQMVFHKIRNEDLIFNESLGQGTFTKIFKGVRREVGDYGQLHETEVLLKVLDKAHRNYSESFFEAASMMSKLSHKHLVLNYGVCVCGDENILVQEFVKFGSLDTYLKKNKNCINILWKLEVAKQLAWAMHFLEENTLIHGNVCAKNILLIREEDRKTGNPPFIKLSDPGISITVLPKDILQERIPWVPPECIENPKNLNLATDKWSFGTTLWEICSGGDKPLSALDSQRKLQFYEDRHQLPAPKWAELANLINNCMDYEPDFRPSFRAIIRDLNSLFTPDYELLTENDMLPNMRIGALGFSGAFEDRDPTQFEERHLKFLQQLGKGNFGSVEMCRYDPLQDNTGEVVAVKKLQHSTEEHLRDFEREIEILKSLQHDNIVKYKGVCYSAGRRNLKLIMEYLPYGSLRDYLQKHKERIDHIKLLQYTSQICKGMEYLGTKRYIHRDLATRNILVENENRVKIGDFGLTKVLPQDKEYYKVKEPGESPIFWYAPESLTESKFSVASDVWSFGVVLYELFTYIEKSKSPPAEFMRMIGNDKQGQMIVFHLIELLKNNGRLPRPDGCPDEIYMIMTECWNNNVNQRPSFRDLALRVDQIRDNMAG
Experimental: (§3) JAK Caliper Enzyme Assay at 1 mM ATP
(§4) Test article was solubilized in dimethyl sulfoxide (DMSO) to a stock concentration of 30 mM. An 11-point half log dilution series was created in DMSO with a top concentration of 600 μM. […] The compound plates were diluted 1 to 60 resulting in a top final assay compound concentration of 10 μM and a 2% DMSO concentration. Test article and assay controls were added to a 384-well plate. Reaction mixtures contained 20 mM HEPES, pH 7.4, 10 mM magnesium chloride, 0.01% bovine serum albumin (BSA), 0.0005% Tween 20, 1 mM ATP and 1 μM peptide substrate. […] The assays were initiated by the addition of 20 nM JAK1, 1 nM JAK2, 1 nM JAK3 or 1 nM TYK2 enzyme and were incubated at room temperature for three hours for JAK1, 60 minutes for JAK2, 75 minutes for JAK3 or 135 minutes for TYK2. Enzyme concentrations and incubation times were optimized for each new enzyme preps and were modified slightly over time to ensure 20%-30% phosphorylation. The assays were stopped with a final concentration of 10 mM EDTA, 0.1% Coating Reagent and 100 mM HEPES, pH=7.4. The assay plates were placed on a Caliper Life Science Lab Chip 3000 (LC3000) instrument, and each well was sampled using appropriate separation conditions to measure the unphosphorylated and phosphorylated peptide.

TYK2 = TYK2 (Homo sapiens, UniProt P29597); assay: JAK Caliper Enzyme Assay at 1 mM ATP (TYK2); format: biochemical
Chain of TYK2 (P29597 whole entry): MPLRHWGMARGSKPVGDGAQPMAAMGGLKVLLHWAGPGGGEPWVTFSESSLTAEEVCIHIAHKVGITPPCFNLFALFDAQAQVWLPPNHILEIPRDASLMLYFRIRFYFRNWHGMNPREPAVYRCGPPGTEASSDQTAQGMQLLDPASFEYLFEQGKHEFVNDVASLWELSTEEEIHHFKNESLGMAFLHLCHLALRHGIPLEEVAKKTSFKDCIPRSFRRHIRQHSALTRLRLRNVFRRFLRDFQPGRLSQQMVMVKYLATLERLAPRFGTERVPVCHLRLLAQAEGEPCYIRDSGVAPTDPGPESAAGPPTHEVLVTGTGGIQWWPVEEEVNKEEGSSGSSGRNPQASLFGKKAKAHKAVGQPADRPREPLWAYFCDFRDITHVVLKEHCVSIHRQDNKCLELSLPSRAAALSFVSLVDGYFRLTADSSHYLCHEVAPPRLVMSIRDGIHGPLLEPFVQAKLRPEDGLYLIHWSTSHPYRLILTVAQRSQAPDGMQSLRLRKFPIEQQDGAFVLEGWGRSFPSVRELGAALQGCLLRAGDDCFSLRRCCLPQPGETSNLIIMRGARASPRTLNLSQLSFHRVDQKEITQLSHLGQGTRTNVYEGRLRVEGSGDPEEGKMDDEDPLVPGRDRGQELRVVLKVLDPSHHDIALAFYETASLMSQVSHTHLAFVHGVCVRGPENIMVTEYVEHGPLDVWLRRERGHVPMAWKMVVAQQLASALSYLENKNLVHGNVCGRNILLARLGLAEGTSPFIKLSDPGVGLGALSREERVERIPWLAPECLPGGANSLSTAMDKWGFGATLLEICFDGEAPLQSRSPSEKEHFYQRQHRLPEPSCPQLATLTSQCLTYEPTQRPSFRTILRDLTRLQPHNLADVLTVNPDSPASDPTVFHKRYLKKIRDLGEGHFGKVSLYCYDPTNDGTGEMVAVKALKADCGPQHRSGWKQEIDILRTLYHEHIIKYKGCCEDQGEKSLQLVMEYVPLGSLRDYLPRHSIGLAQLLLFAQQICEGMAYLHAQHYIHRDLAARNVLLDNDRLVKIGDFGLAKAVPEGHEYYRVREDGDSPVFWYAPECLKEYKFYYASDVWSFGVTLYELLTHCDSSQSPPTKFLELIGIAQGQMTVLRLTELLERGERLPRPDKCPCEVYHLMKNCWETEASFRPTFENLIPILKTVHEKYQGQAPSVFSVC
Experimental: as §3, §4

IFNa induced pSTAT3 = assay: IFNα-induced pSTAT3 in human whole blood (lymphocytes); format: cell-based; details: Lymphocyte, JAK1/TYK2, read-out: IFNa induced pSTAT3, cellular potency IC50
Experimental: Human whole blood was collected from healthy donors via vein puncture into Vacutainer collection tubes containing sodium heparin in accordance with Pfizer protocols (Protocol No. GOHW RDP-01) approved by the Shulman Institutional Review Board. Blood was warmed to 37° C. priorto use. Human whole blood was aliquoted (90 μL/well) in 96-well, deep-well, V-bottom plates and treated with compounds (5 μL/well) at different concentrations up to 60 μM (0.2% DMSO final) at 37° C. for 60 minutes. This was followed by a challenge with IFNα (5000 U/mL), IFNγ (100 ng/mL), IL-6 (50 ng/mL), IL-10 (30 ng/mL), IL-12 (30 ng/mL), IL-15 (30 ng/mL), IL-21 (50 ng/mL), IL-23 (25 ng/mL), IL-27 (1000 ng/mL), EPO (2 U/mL), TSLP (50 ng/mL) or PBS and incubated for 15 minutes. Anti-cell surface antibodies were added 15 minutes prior to cytokine stimulation; anti-CD3-BV421 (0.5 μL/well) to IL-6-treated and TSLP-treated samples and anti-CD14-BV421 (0.5 μL/well) to IFNγ-treated samples. Samples were treated with warm 1×Lyse/Fix buffer (700 μL/well) to terminate activation and further incubated at 37° C. for 20 minutes to lyse red blood cells. Plates were centrifuged at 300×g for 5 minutes, supernatant was aspirated, and cells were washed with 800 μL/well of staining buffer (D-PBS containing 0.1% FBS and 0.01% sodium azide). Washed cell pellets were resuspended in 350 μL/well of prechilled 90% methanol and incubated at 4° C. for 30 minutes. After the removal of 90% methanol, cells were washed once with staining buffer. […]
as §2

IL-15 induced pSTAT5 = assay: IL-15-induced pSTAT5 in human whole blood (lymphocytes); format: cell-based; details: Lymphocyte, JAK1/JAK3, read-out: IL-15 induced pSTAT5, cellular potency IC50
Experimental: as §1, §2

JAK1 = JAK1 (Homo sapiens, UniProt P23458); assay: JAK Caliper Enzyme Assay at 1 mM ATP (JAK1); format: biochemical
Chain of JAK1 (P23458 whole entry): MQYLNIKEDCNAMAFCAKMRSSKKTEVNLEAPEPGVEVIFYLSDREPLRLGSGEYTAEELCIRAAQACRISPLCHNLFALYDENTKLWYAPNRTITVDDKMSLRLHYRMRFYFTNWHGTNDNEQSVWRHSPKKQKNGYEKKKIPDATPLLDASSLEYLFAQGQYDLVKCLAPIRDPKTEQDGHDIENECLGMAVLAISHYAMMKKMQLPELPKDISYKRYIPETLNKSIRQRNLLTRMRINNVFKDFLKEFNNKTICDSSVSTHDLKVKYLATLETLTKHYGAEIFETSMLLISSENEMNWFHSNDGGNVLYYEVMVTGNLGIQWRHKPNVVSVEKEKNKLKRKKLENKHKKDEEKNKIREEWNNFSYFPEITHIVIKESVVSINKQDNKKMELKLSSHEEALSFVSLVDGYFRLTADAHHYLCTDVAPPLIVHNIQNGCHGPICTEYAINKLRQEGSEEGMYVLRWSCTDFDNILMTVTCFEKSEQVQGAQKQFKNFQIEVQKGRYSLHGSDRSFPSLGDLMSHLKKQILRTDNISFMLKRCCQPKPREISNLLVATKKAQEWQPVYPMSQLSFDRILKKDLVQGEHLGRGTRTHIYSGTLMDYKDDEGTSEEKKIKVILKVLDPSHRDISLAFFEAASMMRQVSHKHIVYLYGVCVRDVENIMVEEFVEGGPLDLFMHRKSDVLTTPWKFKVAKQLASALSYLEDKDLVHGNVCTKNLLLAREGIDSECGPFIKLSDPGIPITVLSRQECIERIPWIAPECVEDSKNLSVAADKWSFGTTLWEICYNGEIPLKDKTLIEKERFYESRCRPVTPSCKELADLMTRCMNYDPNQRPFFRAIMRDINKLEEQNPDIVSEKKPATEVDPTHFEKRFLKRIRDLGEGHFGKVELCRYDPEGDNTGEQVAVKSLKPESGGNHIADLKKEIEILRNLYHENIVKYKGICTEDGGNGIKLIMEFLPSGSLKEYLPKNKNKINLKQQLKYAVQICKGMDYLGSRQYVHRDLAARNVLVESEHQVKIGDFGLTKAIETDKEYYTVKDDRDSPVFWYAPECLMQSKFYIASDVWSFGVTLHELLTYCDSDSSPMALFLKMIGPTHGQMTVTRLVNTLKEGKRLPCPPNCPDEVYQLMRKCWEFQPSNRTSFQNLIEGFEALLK
Experimental: as §3, §4

IL-21 induced pSTAT3 = assay: IL-21-induced pSTAT3 in human whole blood (lymphocytes); format: cell-based; details: Lymphocyte, JAK1/JAK3, read-out: IL-21 induced pSTAT3, cellular potency IC50
Experimental: as §1, §2

IL-6 induced pSTATI = assay: IL-6-induced pSTAT1 in human whole blood (CD3+ cells); format: cell-based; details: JAK1/JAK2, read-out: IL-6 induced pSTATI, cellular potency IC50
Experimental: as §1, §2

**Q.** Which results are given for `C[C@H](O)CS(=O)(=O)N[C@H]1C[C@@H](N(C)c2ncnc3[nH]ccc23)C1` (single isomer, unassigned) [IA (M2)]?
**A.** IC50 (IFNg induced pSTATI): 2160 nM; IC50 (JAK2): 886 nM; IC50 (TYK2): 1210 nM; IC50 (IFNa induced pSTAT3): 90.5 nM; IC50 (IL-15 induced pSTAT5): 353 nM; IC50 (JAK1): 17.9 nM; IC50 (IL-21 induced pSTAT3): 487 nM; IC50 (IL-6 induced pSTATI): 136 nM

**Q.** `C[C@@H](O)CS(=O)(=O)N[C@H]1C[C@@H](N(C)c2ncnc3[nH]ccc23)C1` (single isomer, unassigned) [IC (M3)] was tested. Which IC50 (IFNg induced pSTATI) did it give?
**A.** The IC50 was 4250 nM.

**Q.** What about the IC50 (JAK2) of the same compound?
**A.** The IC50 was 2280 nM.

**Q.** What about the IC50 (TYK2) of the same compound?
**A.** Its IC50 is 3420 nM.

**Q.** And the IC50 (IFNa induced pSTAT3)?
**A.** The IC50 was 225 nM.

**Q.** And the IC50 (IL-15 induced pSTAT5)?
**A.** Its IC50 is 800 nM.

**Q.** And the IC50 (JAK1)?
**A.** The IC50 was 56.7 nM.

**Q.** And the IC50 (IL-21 induced pSTAT3)?
**A.** The IC50 was 1050 nM.

**Q.** What about the IC50 (IL-6 induced pSTATI) of the same compound?
**A.** The IC50 was 333 nM.

**Q.** With `CN(c1ncnc2[nH]ccc12)[C@H]1C[C@@H](NS(=O)(=O)CCCO)C1` [IB (M1), 3-Hydroxy-N-(cis-3-(methyl(7H-pyrrolo[2,3-d]pyrimidin-4-yl)amino)cyclobutyl)propane-1-sulfonamide] as the compound, how does the IC50 (IFNg induced pSTATI) read?
**A.** The IC50 was 1950 nM.

**Q.** And the IC50 (JAK2)?
**A.** The IC50 was 1140 nM.

**Q.** What about the IC50 (TYK2) of the same compound?
**A.** Its IC50 is 3190 nM.

**Q.** And the IC50 (IFNa induced pSTAT3)?
**A.** The IC50 was 296 nM.

**Q.** What about the IC50 (IL-15 induced pSTAT5) of the same compound?
**A.** The IC50 was 558 nM.

**Q.** What about the IC50 (JAK1) of the same compound?
**A.** Its IC50 is 43.4 nM.

**Q.** And the IC50 (IL-21 induced pSTAT3)?
**A.** Its IC50 is 844 nM.

**Q.** What about the IC50 (IL-6 induced pSTATI) of the same compound?
**A.** Its IC50 is 171 nM.
